target: P2X7 (Homo sapiens (Human), UniProt Q99572); test: P2X7 antagonism in human PBMCs (LPS + Bz-ATP induced IL-1β release, ELISA); format: cell-based; conditions: compound 1 μM, LPS 30 ng/ml, Bz-ATP 0.5 mM;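 also: PBMCs from donor human blood, with a further 1.5 h incubation of the cells in the assay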
Sequence (Q99572 whole entry): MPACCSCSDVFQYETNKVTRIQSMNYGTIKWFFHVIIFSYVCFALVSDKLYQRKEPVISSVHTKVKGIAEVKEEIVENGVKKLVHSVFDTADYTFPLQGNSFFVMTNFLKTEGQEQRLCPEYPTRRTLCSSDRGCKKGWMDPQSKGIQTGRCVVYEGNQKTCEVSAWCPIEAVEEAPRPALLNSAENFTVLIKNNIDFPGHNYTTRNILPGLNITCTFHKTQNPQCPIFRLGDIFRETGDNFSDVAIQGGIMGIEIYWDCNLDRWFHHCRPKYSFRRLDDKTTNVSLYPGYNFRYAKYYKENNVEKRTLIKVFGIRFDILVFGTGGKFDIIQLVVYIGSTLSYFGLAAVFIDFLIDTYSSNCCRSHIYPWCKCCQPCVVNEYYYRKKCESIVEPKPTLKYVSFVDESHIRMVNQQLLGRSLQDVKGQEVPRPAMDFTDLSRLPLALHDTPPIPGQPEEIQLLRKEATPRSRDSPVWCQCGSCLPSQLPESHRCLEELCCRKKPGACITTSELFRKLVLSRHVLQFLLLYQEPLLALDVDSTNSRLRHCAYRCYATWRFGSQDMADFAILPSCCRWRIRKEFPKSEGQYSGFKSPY
Procedure: Human blood was collected using a blood donor program. PBMCs were isolated from blood using a Ficoll density gradient technique. Briefly, blood was laid on Ficoll solution and centrifuged at RT for 20 minutes at 2000 rpm. The buffy layer (between red blood cells and plasma) was carefully collected by aspiration, washed with PBS and centrifuged again at 1500 rpm for 15 minutes. The resulting cell pellet was washed and plated on 96 well-plates for experiments. For the Mouse/Human Whole Blood experiments, 150 μl of either mouse or human blood was platted on 96 well-plates. Lipopolysaccharide (LPS) (30 ng/ml) was added to each well and incubated for 1 hour. Test compounds were then added and incubated for 30 minutes. The P2X7 agonist, 2′(3′)-O-(4-benzoylbenzoyl) adenosine 5′ triphosphate (Bz-ATP) was then added at a final concentration of 0.5 mM (PBMC) or 1 mM (blood). Cells were incubated for an additional 1.5 hours. At that point, supernatant was collected and stored for IL-1β assay using manufacturer's protocol for enzyme-linked immunosorbent assay (ELISA). Data was expressed as percent control, where control is defined as the difference in IL-1β release in LPS+Bz-ATP samples and LPS only samples. Data was plotted as response (% control) versus concentration to generate IC50 values.

PBMC 1 μM (% control)	Compound
100.4 % control	O=C(c1cccnc1C(F)(F)F)N1CCc2c(-c3ccccc3)n[nH]c2C1 [Example 322, (3-phenyl-4,5-dihydro-1H-pyrazolo[3,4-c]pyridin-6(7H)-yl)(2-(trifluoromethyl)pyridin-3-yl)methanone]
102.4 % control	O=C(c1ccc(F)cc1Cl)N1CCc2c(-c3ccccc3)n[nH]c2C1 [Example 323, (2-chloro-4-fluorophenyl)(3-phenyl-4,5-dihydro-1H-pyrazolo[3,4-c]pyridin-6(7H)-yl)methanone]
100.4 % control	O=C(c1c(Cl)cccc1Cl)N1CCc2c(-c3ccccc3)n[nH]c2C1 [Example 324, (2,6-dichlorophenyl)(3-phenyl-4,5-dihydro-1H-pyrazolo[3,4-c]pyridin-6(7H)-yl)methanone]
99.7 % control	O=C(c1c(F)cccc1Cl)N1CCc2c(-c3ccccc3)n[nH]c2C1 [Example 325, (2-chloro-6-fluorophenyl)(3-phenyl-4,5-dihydro-1H-pyrazolo[3,4-c]pyridin-6(7H)-yl)methanone]
92.0 % control	Cn1nc2c(c1-c1ccc(F)cc1)CCN(C(=O)c1cccc(Cl)c1Cl)C2 [Example 326, (2,3-dichlorophenyl)(3-(4-fluorophenyl)-2-methyl-4,5-dihydro-2H-pyrazolo[3,4-c]pyridin-6(7H)-yl)methanone]

same assay, conditions: compound 10 μM, LPS 30 ng/ml, Bz-ATP 0.5 mM

PBMC 10 μM (% control)	Compound
28.7 % control	C[C@@H]1c2nnn(-c3ccn(CCF)n3)c2CCN1C(=O)c1cccc(C(F)(F)F)c1Cl (single isomer, unassigned) [Example 171, (R*)-(2-Chloro-3-(trifluoromethyl)phenyl)(1-(1-(2-fluoroethyl)-1H-pyrazol-3-yl)-4-methyl-6,7-dihydro-1H-[1,2,3]triazolo[4,5-c]pyridin-5(4H)-yl)methanone]
−3.5 % control	Cc1cccnc1-n1nnc2c1CCN(C(=O)c1cccc(C(F)(F)F)c1Cl)C2C (centres unmarked) [Example 259, (2-Chloro-3-(trifluoromethyl)phenyl)(4-methyl-1-(3-methylpyridin-2-yl)-6,7-dihydro-1H-[1,2,3]triazolo[4,5-c]pyridin-5(4H)-yl)methanone]
−5.5 % control	Cc1c(C(=O)N2CCc3c(nnn3-c3ncccn3)C2C)cccc1C(F)(F)F (centres unmarked) [Example 282, (4-methyl-1-(pyrimidin-2-yl)-6,7-dihydro-1H-[1,2,3]triazolo[4,5-c]pyridin-5(4H)-yl)(2-methyl-3-(trifluoromethyl)phenyl)methanone]
1.5 % control	Cc1ccnc(-n2nnc3c2CCN(C(=O)c2cccc(C(F)(F)F)c2Cl)C3C)c1 (centres unmarked) [Example 299, (2-chloro-3-(trifluoromethyl)phenyl)(4-methyl-1-(4-methylpyridin-2-yl)-6,7-dihydro-1H-[1,2,3]triazolo[4,5-c]pyridin-5(4H)-yl)methanone]
1.4 % control	C[C@@H]1Cc2c(nnn2-c2ccn[nH]2)[C@H](C)N1C(=O)c1cccc(C(F)(F)F)c1Cl [Example 309, (2-chloro-3-(trifluoromethyl)phenyl)((4S,6R)-4,6-dimethyl-1-(1H-pyrazol-5-yl)-6,7-dihydro-1H-[1,2,3]triazolo[4,5-c]pyridin-5(4H)-yl)methanone]
12.2 % control	C[C@@H]1c2nnn(-c3ccn[nH]3)c2C[C@H](C)N1C(=O)c1cccc(C(F)(F)F)c1Cl [Example 310, (2-chloro-3-(trifluoromethyl)phenyl)((4R,6S)-4,6-dimethyl-1-(1H-pyrazol-5-yl)-6,7-dihydro-1H-[1,2,3]triazolo[4,5-c]pyridin-5(4H)-yl)methanone]
63.6 % control	CC1Cc2c(nnn2-c2ncc(F)cn2)CN1C(=O)c1cccc(C(F)(F)F)c1F (centres unmarked) [Example 311, (2-fluoro-3-(trifluoromethyl)phenyl)(1-(5-fluoropyrimidin-2-yl)-6-methyl-6,7-dihydro-1H-[1,2,3]triazolo[4,5-c]pyridin-5(4H)-yl)methanone]
−6.8 % control	C[C@H]1Cc2c(nnn2-c2ccn[nH]2)[C@H](C)N1C(=O)c1cccc(C(F)(F)F)c1Cl [Example 319, (2-chloro-3-(trifluoromethyl)phenyl)((4S,6S)-4,6-dimethyl-1-(1H-pyrazol-5-yl)-6,7-dihydro-1H-[1,2,3]triazolo[4,5-c]pyridin-5(4H)-yl)methanone]
−19.7 % control	C[C@@H]1Cc2c(nnn2-c2ccn[nH]2)[C@@H](C)N1C(=O)c1cccc(C(F)(F)F)c1Cl [Example 320, (2-chloro-3-(trifluoromethyl)phenyl)((4R,6R)-4,6-dimethyl-1-(1H-pyrazol-5-yl)-6,7-dihydro-1H-[1,2,3]triazolo[4,5-c]pyridin-5(4H)-yl)methanone]

More lines, now with the values behind:

Compound	PBMC 10 μM (% control)
Cc1cc(C)nc(-n2nnc3c2CCN(C(=O)c2cccc(C(F)(F)F)c2Cl)[C@@H]3C)n1 (single isomer, unassigned) [Example 181, (R*)-(2-chloro-3-(trifluoromethyl)phenyl)(1-(4,6-dimethylpyrimidin-2-yl)-4-methyl-6,7-dihydro-1H-[1,2,3]triazolo[4,5-c]pyridin-5(4H)-yl)methanone]	−0.1 % control
C[C@H]1c2ncn(-c3ccccn3)c2CCN1C(=O)c1cccc(Cl)c1Cl (single isomer, unassigned) [Example 191, (S*)-(2,3-Dichlorophenyl)(4-methyl-1-(pyridin-2-yl)-6,7-dihydro-1H-imidazo[4,5-c]pyridin-5(4H)-yl)methanone]	5.2 % control
C[C@@H]1c2ncn(-c3ccccn3)c2CCN1C(=O)c1cccc(Cl)c1Cl (single isomer, unassigned) [Example 192, (R*)-(2,3-Dichlorophenyl)(4-methyl-1-(pyridin-2-yl)-6,7-dihydro-1H-imidazo[4,5-c]pyridin-5(4H)-yl)methanone]	−6.3 % control
CC1c2ncn(-c3ccc(F)cn3)c2CCN1C(=O)c1ccc(C(C)(C)C)cc1 (centres unmarked) [Example 265, (4-(tert-butyl)phenyl)(1-(5-fluoropyridin-2-yl)-4-methyl-6,7-dihydro-1H-imidazo[4,5-c]pyridin-5(4H)-yl)methanone]	76.5 % control
C[C@@H]1Cc2c(nnn2-c2ccc(F)cc2)[C@@H](C)N1C(=O)c1cccc(C(F)(F)F)c1Cl [Example 284, (2-chloro-3-(trifluoromethyl)phenyl)((4R,6R)-1-(4-fluorophenyl)-4,6-dimethyl-6,7-dihydro-1H-[1,2,3]triazolo[4,5-c]pyridin-5(4H)-yl)methanone]	18.2 % control
C[C@H]1Cc2c(nnn2-c2ccc(F)cc2)[C@H](C)N1C(=O)c1cccc(C(F)(F)F)c1Cl [Example 285, (2-chloro-3-(trifluoromethyl)phenyl)((4S,6S)-1-(4-fluorophenyl)-4,6-dimethyl-6,7-dihydro-1H-[1,2,3]triazolo[4,5-c]pyridin-5(4H)-yl)methanone]	−2.6 % control
C[C@@H]1Cc2c(nnn2-c2ccc(F)cc2)[C@H](C)N1C(=O)c1cccc(C(F)(F)F)c1Cl [Example 286, (2-chloro-3-(trifluoromethyl)phenyl)((4S,6R)-1-(4-fluorophenyl)-4,6-dimethyl-6,7-dihydro-1H-[1,2,3]triazolo[4,5-c]pyridin-5(4H)-yl)methanone]	5.8 % control
C[C@@H]1c2nnn(-c3ccc(F)cc3)c2C[C@H](C)N1C(=O)c1cccc(C(F)(F)F)c1Cl [Example 287, (2-chloro-3-(trifluoromethyl)phenyl)((4R,6S)-1-(4-fluorophenyl)-4,6-dimethyl-6,7-dihydro-1H-[1,2,3]triazolo[4,5-c]pyridin-5(4H)-yl)methanone]	−4.1 % control
C[C@H]1Cc2c(nnn2-c2ccccc2)CN1C(=O)c1cccc(C(F)(F)F)c1Cl [Example 288, (S)-(2-chloro-3-(trifluoromethyl)phenyl)(6-methyl-1-phenyl-6,7-dihydro-1H-[1,2,3]triazolo[4,5-c]pyridin-5(4H)-yl)methanone]	4.4 % control
CC1Cc2c(nnn2-c2ccccc2)CN1C(=O)c1cccc(C(F)(F)F)c1Cl (centres unmarked) [Example 290, (2-chloro-3-(trifluoromethyl)phenyl)(6-methyl-1-phenyl-6,7-dihydro-1H-[1,2,3]triazolo[4,5-c]pyridin-5(4H)-yl)methanone]	−11.2 % control
C[C@@H]1Cc2c(nnn2-c2ccn[nH]2)[C@@H](C)N1C(=O)c1cccc(C(F)(F)F)c1Cl [Example 296, (2-chloro-3-(trifluoromethyl)phenyl)((4R,6R)-4,6-dimethyl-1-(1H-pyrazol-5-yl)-6,7-dihydro-1H-[1,2,3]triazolo[4,5-c]pyridin-5(4H)-yl)methanone]	3.6 % control
C[C@@H]1Cc2c(nnn2-c2ccn[nH]2)[C@H](C)N1C(=O)c1cccc(C(F)(F)F)c1Cl [Example 297, (2-chloro-3-(trifluoromethyl)phenyl)((4S,6R)-4,6-dimethyl-1-(1H-pyrazol-5-yl)-6,7-dihydro-1H-[1,2,3]triazolo[4,5-c]pyridin-5(4H)-yl)methanone]	2.6 % control
C[C@H]1Cc2c(nnn2-c2ncc(F)cn2)CN1C(=O)c1cccc(C(F)(F)F)c1 [Example 304, (S)-(1-(5-fluoropyrimidin-2-yl)-6-methyl-6,7-dihydro-1H-[1,2,3]triazolo[4,5-c]pyridin-5(4H)-yl)(3-(trifluoromethyl)phenyl)methanone]	3.2 % control
O=C(c1cccc(C(F)(F)F)c1Cl)N1CCc2c(ncn2-c2ccc(F)cn2)C1 [Example 315, (2-chloro-3-(trifluoromethyl)phenyl)(1-(5-fluoropyridin-2-yl)-6,7-dihydro-1H-imidazo[4,5-c]pyridin-5(4H)-yl)methanone]	8.8 % control

target: rat P2X7 (Rattus norvegicus (Rat), UniProt Q64663); test: Ca2+ flux (FLIPR) in 1321N1 cells expressing recombinant rat P2X7 channel; format: cell-based; conditions: 250 μM BzATP;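 also: Calcium-4 dye fluorescence change read 180 s after agonist addition, following 30 min cell preincubation with test compound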
Sequence (Q64663 whole entry): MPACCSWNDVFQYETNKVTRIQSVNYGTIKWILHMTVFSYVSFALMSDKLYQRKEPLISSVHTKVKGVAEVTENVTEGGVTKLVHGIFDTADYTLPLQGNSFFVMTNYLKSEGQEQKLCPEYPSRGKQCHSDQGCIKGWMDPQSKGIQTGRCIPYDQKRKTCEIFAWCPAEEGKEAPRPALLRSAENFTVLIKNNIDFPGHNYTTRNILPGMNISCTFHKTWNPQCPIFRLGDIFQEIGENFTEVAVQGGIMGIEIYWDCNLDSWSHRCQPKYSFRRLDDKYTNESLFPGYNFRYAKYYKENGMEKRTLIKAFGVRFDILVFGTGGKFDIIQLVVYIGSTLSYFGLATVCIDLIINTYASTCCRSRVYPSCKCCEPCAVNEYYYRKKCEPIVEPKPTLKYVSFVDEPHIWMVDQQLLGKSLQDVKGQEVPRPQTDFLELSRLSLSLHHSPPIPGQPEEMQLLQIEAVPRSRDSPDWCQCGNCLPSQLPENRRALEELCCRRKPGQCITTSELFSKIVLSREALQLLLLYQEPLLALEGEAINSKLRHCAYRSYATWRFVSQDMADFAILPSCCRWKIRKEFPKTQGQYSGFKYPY

IC50	Compound
> 10 µM	C[C@@H]1c2nnn(-c3ccn(CCF)n3)c2CCN1C(=O)c1cccc(C(F)(F)F)c1Cl (single isomer, unassigned) [Example 171, (R*)-(2-Chloro-3-(trifluoromethyl)phenyl)(1-(1-(2-fluoroethyl)-1H-pyrazol-3-yl)-4-methyl-6,7-dihydro-1H-[1,2,3]triazolo[4,5-c]pyridin-5(4H)-yl)methanone]
1.3 µM	C[C@H]1c2ncn(-c3ccccn3)c2CCN1C(=O)c1cccc(Cl)c1Cl (single isomer, unassigned) [Example 191, (S*)-(2,3-Dichlorophenyl)(4-methyl-1-(pyridin-2-yl)-6,7-dihydro-1H-imidazo[4,5-c]pyridin-5(4H)-yl)methanone]
10 µM	C[C@@H]1c2ncn(-c3ccccn3)c2CCN1C(=O)c1cccc(Cl)c1Cl (single isomer, unassigned) [Example 192, (R*)-(2,3-Dichlorophenyl)(4-methyl-1-(pyridin-2-yl)-6,7-dihydro-1H-imidazo[4,5-c]pyridin-5(4H)-yl)methanone]

Compound	IC50
Cc1cc(C)nc(-n2nnc3c2CCN(C(=O)c2cccc(C(F)(F)F)c2Cl)[C@@H]3C)n1 (single isomer, unassigned) [Example 181, (R*)-(2-chloro-3-(trifluoromethyl)phenyl)(1-(4,6-dimethylpyrimidin-2-yl)-4-methyl-6,7-dihydro-1H-[1,2,3]triazolo[4,5-c]pyridin-5(4H)-yl)methanone]	> 10 µM
